Values quoted from earlier work, collected in paper PMC11259557 (Cancer Medicine, 2024).
Read-outs that look alike come from different tables or passages of the source.

Experiments:
[1] = set-up: method as in PMID 26337806, PMID 27196567

Q: Which DCR (multiple myeloma; phase I trial) does the source give for `CC(C)C[C@H](NC(=O)[C@H](CCc1ccccc1)NC(=O)CN1CCOCC1)C(=O)N[C@@H](Cc1ccccc1)C(=O)N[C@@H](CC(C)C)C(=O)[C@@]1(C)CO1` [carfilzomib] here?
A: 39%

Q: With `CC(C)C[C@H](NC(=O)[C@@H](NC(=O)c1cccc(-c2ccccc2)n1)[C@@H](C)O)B(O)O` [delanzomib] as the compound, how does the “incidence of grade ≥3 diarrhea” value read?
A: 19%

Q: What about the “incidence of peripheral neuropathy” value of the same compound?
A: 21%

Q: With `CC(C)C[C@H](NC(=O)CNC(=O)c1cc(Cl)ccc1Cl)B(O)O` [ixazomib] as the compound, how does the “incidence of decreased platelet counts” value read?
A: 43%

Q: And the “peripheral neuropathy, any grade” value (patients)?
A: 27%

Q: What about the “peripheral neuropathy, grade 3” value (patients) of the same compound?
A: 2%

Q: What about the incidence of diarrhea (phase 1 study in RRMM) of the same compound?
A: 38%

Q: What about the “incidence of grade ≥3 diarrhea” value (phase 1 study in RRMM) of the same compound?
A: 17%

Q: What about the “incidence of peripheral neuropathy” value (phase 1 study in RRMM) of the same compound?
A: 20%

Q: What about the “rate of grade ≥3 AEs” value (phase 1 study in RRMM) of the same compound?
A: 53%

Q: And the incidence of diarrhea (real-world settings)?
A: 26.2%

Q: And the “incidence of peripheral neuropathy” value (real-world settings)?
A: 35%

Q: What about the “incidence of ≥grade 3 diarrhea” value (real-world settings) of the same compound?
A: 13.9%

Q: What about the “incidence of ≥grade 3 peripheral neuropathy” value (real-world settings) of the same compound?
A: 3%

Q: What about the “participants who discontinued due to AEs” value (study by Kumar et al.) of the same compound?
A: 12%

Q: And the T max [1]?
A: 1 to 1.5 h

Q: What about the half-life [1] of the same compound?
A: 140 to 150 h

Q: What about the DCR (multiple myeloma; monotherapy) of the same compound?
A: 50%

Q: Which “patients who experience diarrhea” value does the source give for `COC[C@H](NC(=O)c1cnc(C)s1)C(=O)N[C@@H](COC)C(=O)N[C@@H](Cc1ccccc1)C(=O)[C@@]1(C)CO1` [oprozomib] here?
A: Nearly all patients
